{
  "source": "paper PMC9569529",
  "about": "“Safe and Efficient Sigma1 Ligand: A Potential Drug Candidate for Multiple Sclerosis” (International Journal of Molecular Sciences, 2022)",
  "key": {"SH-SY5Y": {"test_system": "SH-SY5Y", "test": "Cytotoxicity in human neuroblastoma cell line (MTT/MTS)", "type": "cell-based", "details": "72 h", "protocol": "Toxicity analysis was performed in the human neuroblastoma cell line (SH-SY5Y), which was cultured in Dulbecco’s Modified Eagle Medium (DMEM, Gibco) supplemented with 2 mM L-glutamine (Invitrogen, Thermo Fisher Scientific Inc. Waltham, MA, USA), […] streptomycin (Invitrogen), 100 IU/mL penicillin (Invitrogen), 1 mM non-essential amino acids (Invitrogen) and 10% (v/v) heat inactivated fetal bovine serum (Sigma Aldrich, Burlington, MA, USA) and grown at 37 °C in a humidified incubator with 5% CO2. […] After 72 h of incubation, cell growth was estimated by the colorimetric MTT assay (CellTiter 96® aqueous one solution cell proliferation assay-MTS, Promega, Madison, WI, USA) according to the manufacturer’s protocol. Absorbance was read at 490 nm and results were expressed as % from the control condition considered as 100%."}, "P-gp [1]": {"test_system": "T1, P-gp", "T1 construct": "in the Caco-2 cell line with and without verapamil; host or cells: Caco-2", "test": "P-gp substrate assessment, Caco-2 with and without verapamil", "type": "in vitro ADME", "details": "human", "protocol": "(§1) The compound was classically evaluated at 10 µM for all the ADME analyses. Bidirectional permeability (apical A to basolateral B pH 6.5/7.4 and basolateral B to apical A pH 7.4/6.5) was assessed in the epithelial colorectal adenocarcinoma cell line (Caco-2 cell line). Results were expressed as × 10^−6cm/s (Papp) and as % recovery. Efflux ratio, i.e., Papp(B-A)/Papp(A-B), was calculated. Plasma protein binding was analyzed by HPLC-MS/MS after 4-h incubation at 37 °C, as described by Banker et al.. Concentration was evaluated by LC/MS-MS. CYP inhibition was performed in human liver microsomes as described in [61]. Analysis of the respective metabolites. was performed by HPLC-MS/MS. Transporter inhibition analysis was also performed in overexpressing cell lines. Respective metabolites for each specific transporter substrate were analyzed by fluorometry or scintillation counting and % inhibition of control values were calculated. P-glycoprotein transporter substrate assessment was performed by bidirectional permeability analysis (apical A to basolateral B pH 7.4/7.4 and basolateral B to apical A pH 7.4/7.4) in the Caco-2 cell line with and without verapamil, as described in [59]. Results were expressed as ×10^−6 cm/s (Papp) and as % recovery. The efflux ratio, i.e., Papp(B-A)/Papp(A-B), was calculated. CYP450 induction characterization was performed on human hepatocytes. The mRNA levels of 7 different CYPs were analyzed by qPCR, as described in [72]. The compound was evaluated at 1, 10 and 100 µM. Fold-induction values were determined and compared to cut-off values, as defined for each CYP isozyme in each hepatocyte lot."}, "P-gp [2]": {"molecular_target": "T2, P-gp (Homo sapiens, UniProt P08183)", "T2 construct": "in the Caco-2 cell line with and without verapamil; host or cells: Caco-2", "T2 sequence (P08183 whole entry)": "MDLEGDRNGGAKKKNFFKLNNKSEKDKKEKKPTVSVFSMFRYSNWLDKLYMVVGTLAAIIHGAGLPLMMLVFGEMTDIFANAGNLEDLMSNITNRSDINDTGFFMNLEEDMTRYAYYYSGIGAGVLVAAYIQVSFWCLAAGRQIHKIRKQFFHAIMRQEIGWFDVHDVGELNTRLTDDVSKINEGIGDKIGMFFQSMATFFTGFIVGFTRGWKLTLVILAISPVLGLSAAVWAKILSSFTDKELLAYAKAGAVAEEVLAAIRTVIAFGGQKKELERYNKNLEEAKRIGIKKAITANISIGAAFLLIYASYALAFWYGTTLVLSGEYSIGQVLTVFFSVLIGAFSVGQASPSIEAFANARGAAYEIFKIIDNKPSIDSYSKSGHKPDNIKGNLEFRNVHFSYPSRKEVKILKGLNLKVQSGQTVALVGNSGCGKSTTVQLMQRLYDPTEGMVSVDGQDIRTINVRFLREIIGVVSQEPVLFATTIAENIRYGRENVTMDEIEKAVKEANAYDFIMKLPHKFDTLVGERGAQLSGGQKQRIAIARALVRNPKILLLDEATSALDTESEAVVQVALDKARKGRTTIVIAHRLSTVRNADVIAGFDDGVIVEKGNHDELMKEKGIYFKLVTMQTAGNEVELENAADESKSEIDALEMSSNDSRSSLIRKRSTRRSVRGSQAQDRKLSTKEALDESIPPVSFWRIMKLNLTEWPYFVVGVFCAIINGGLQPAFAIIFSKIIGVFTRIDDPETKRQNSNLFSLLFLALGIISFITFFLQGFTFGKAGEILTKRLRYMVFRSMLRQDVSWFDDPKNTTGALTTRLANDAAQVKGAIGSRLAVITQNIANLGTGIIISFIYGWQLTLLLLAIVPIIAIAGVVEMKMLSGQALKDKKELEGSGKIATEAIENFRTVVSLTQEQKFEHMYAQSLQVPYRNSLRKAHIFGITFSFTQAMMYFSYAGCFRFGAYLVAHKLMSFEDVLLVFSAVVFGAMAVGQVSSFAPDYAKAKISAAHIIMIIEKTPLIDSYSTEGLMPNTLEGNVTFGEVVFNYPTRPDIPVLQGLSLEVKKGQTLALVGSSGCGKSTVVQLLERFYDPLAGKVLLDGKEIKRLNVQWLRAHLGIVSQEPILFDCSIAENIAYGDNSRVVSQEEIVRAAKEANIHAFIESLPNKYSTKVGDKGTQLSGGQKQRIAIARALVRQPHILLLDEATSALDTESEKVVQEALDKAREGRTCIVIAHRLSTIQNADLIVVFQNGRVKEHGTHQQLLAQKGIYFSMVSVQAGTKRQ", "test": "P-gp substrate assessment, Caco-2 with and without verapamil", "type": "in vitro ADME", "protocol": "as §1"}, "S. typhimurium TA1537": {"test_system": "S. typhimurium TA1537", "test": "Ames test", "details": "7i 40 µg/plate"}, "TK6 cells": {"test_system": "TK6 cells", "test": "In vitro micronucleus test", "method": "The frequency of micronucleated (MN) cells was determined out of at least 2000 mononucleated cells."}, "[3]": {"details": "3 h treatment + 24 h recovery, +S9, 68.75 µg/mL"}, "[4]": {"details": "3 h treatment + 24 h recovery, +S9, 137.5 µg/mL"}, "[5]": {"details": "3 h treatment + 24 h recovery, +S9, 275 µg/mL"}, "[6]": {"details": "3 h treatment + 24 h recovery, −S9, 68.78 µg/mL"}, "[7]": {"details": "3 h treatment + 24 h recovery, −S9, 137.5 µg/mL"}, "[8]": {"details": "3 h treatment + 24 h recovery, −S9, 275 µg/mL"}, "[9]": {"details": "27 h continuous treatment, −S9, 68.75 µg/mL"}, "[10]": {"details": "27 h continuous treatment, −S9, 137.5 µg/mL"}, "[11]": {"details": "27 h continuous treatment, −S9, 275 µg/mL"}},
  "data": [
    {"smiles": "O=C(NCCCNCc1ccccc1)c1ccc(Cl)cc1", "note": "[compound 7i-deMe]", "values": [
      {"measurement": "inhibition at 100 µM", "setting": "SH-SY5Y", "value": 77, "unit": "%"}
    ]},
    {"smiles": "CN(CCCNC(=O)c1ccc(Cl)cc1)Cc1ccccc1", "note": "[compound 7i]", "values": [
      {"measurement": "Papp A→B at 10 µM", "setting": "P-gp [1]; pH 7.4, Caco-2, 10 µM, with verapamil, read-out: P-gp substrate, Verapamil, A/B pH7.4/7.4", "value": 28, "unit": "×10⁻⁶ cm/s"},
      {"measurement": "Papp B→A at 10 µM", "setting": "P-gp [1]; pH 7.4, Caco-2, 10 µM, with verapamil, read-out: P-gp substrate, Verapamil, B/A pH7.4/7.4", "value": 16.9, "unit": "×10⁻⁶ cm/s"},
      {"measurement": "efflux ratio at 10 µM", "setting": "P-gp [1]; Caco-2, pH 7.4/7.4, with verapamil, read-out: P-gp substrate, Verapamil, e-ratio", "value": 0.6},
      {"measurement": "P-gp substrate (conclusion)", "setting": "P-gp [2]; comparison of efflux ratios with/without verapamil", "value": "not a substrate"},
      {"measurement": "Papp A→B at 10 µM", "setting": "P-gp [2]; human, pH 7.4, Caco-2, 10 µM, PBS (no verapamil), read-out: P-gp substrate, PBS, A/B pH7.4/7.4", "value": 45.8, "unit": "×10⁻⁶ cm/s"},
      {"measurement": "Papp B→A at 10 µM", "setting": "P-gp [2]; human, pH 7.4, Caco-2, 10 µM, PBS (no verapamil), read-out: P-gp substrate, PBS, B/A pH7.4/7.4", "value": 11.7, "unit": "×10⁻⁶ cm/s"},
      {"measurement": "efflux ratio at 10 µM", "setting": "P-gp [2]; human, Caco-2, pH 7.4/7.4, PBS (no verapamil), read-out: P-gp substrate, PBS, e-ratio", "value": 0.3},
      {"measurement": "Ames TA1537 +S9 (Mean revertants/well per title)", "setting": "S. typhimurium TA1537; +S9, positive control 2-anthramine 0.5", "value": 1.1},
      {"measurement": "Ames TA1537 −S9 (Mean revertants/well per title)", "setting": "S. typhimurium TA1537; −S9, positive control 9-amino-acridine 1.56", "value": 0.9},
      {"measurement": "MN/2 × 10^3 Cells", "setting": "TK6 cells; [3]", "value": 10.5},
      {"measurement": "RS (%)", "setting": "TK6 cells; [3]", "value": 106.1, "unit": "%"},
      {"measurement": "MN/2 × 10^3 Cells", "setting": "TK6 cells; [4]", "value": 6.0},
      {"measurement": "RS (%)", "setting": "TK6 cells; [4]", "value": 97.2, "unit": "%"},
      {"measurement": "MN/2 × 10^3 Cells", "setting": "TK6 cells; [5]", "value": 9.0},
      {"measurement": "RS (%)", "setting": "TK6 cells; [5]", "value": 103.7, "unit": "%"},
      {"measurement": "MN/2 × 10^3 Cells", "setting": "TK6 cells; [6]", "value": 6.0},
      {"measurement": "RS (%)", "setting": "TK6 cells; [6]", "value": 94.1, "unit": "%"},
      {"measurement": "MN/2 × 10^3 Cells", "setting": "TK6 cells; [7]", "value": 8.0},
      {"measurement": "RS (%)", "setting": "TK6 cells; [7]", "value": 92.7, "unit": "%"},
      {"measurement": "MN/2 × 10^3 Cells", "setting": "TK6 cells; [8]", "value": 8.0},
      {"measurement": "RS (%)", "setting": "TK6 cells; [8]", "value": 80.0, "unit": "%"},
      {"measurement": "MN/2 × 10^3 Cells", "setting": "TK6 cells; [9]", "value": 1.0},
      {"measurement": "RS (%)", "setting": "TK6 cells; [9]", "value": 86.6, "unit": "%"},
      {"measurement": "MN/2 × 10^3 Cells", "setting": "TK6 cells; [10]", "value": 7.0},
      {"measurement": "RS (%)", "setting": "TK6 cells; [10]", "value": 84.2, "unit": "%"},
      {"measurement": "MN/2 × 10^3 Cells", "setting": "TK6 cells; [11]", "value": 6.0},
      {"measurement": "RS (%)", "setting": "TK6 cells; [11]", "value": 70.1, "unit": "%"},
      {"measurement": "genotoxic characteristics (micronucleus, conclusion)", "setting": "TK6 cells; TK6 cells, ±S9", "value": "no genotoxic characteristics"}
    ]}
  ]
}
